This passage reports Kd results from PMC12051055, “Spectroscopy and crystallography define carotenoid oxygenases as a new subclass of mononuclear non-heme Fe^II enzymes” (The Journal of Biological Chemistry, 2025).

The experiment deals with T1, CAO1 (Neurospora crassa carotenoid oxygenase 1) (Neurospora crassa, UniProt Q7S860).
T1 construct: gene cao-1
T1 sequence (Q7S860 1-526): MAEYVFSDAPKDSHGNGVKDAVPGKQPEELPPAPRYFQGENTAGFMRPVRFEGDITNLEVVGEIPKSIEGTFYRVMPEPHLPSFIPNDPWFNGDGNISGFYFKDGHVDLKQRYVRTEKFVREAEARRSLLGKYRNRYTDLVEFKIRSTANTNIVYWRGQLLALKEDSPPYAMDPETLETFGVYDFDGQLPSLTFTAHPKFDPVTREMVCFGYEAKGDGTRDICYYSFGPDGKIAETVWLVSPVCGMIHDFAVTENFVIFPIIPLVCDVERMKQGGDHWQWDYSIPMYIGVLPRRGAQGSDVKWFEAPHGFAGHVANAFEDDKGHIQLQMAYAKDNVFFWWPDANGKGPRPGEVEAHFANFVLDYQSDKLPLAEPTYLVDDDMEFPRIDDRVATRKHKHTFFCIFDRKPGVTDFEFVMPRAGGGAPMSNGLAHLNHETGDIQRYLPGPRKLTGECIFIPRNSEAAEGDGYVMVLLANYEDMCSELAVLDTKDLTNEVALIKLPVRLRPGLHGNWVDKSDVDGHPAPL
Description: UV-visible/CD titration of Fe(II)-CAO1 (anaerobic); also X-ray crystal structure, MCD, steady-state kinetics. It is filed as binding.

Consider `Oc1cc(O)cc(/C=C/c2ccc(O)c(O)c2)c1` [piceatannol], for which the affinity, expressed as Kd, was 50 nM.
